Patent US9120812B2, “Pyrimidooxazocine derivatives as mTOR-inhibitors” (SANOFI, priority 2012, dated 2015)

Key:
Akt-pS473 in U87MG cells = settings: Homo sapiens, U-87 MG, read-out: U87 Akt-pS473 % Inhibition or IC50, nM (IC50), U87MG cells
[1] = target: mTOR (human recombinant aa mTOR 1360-2549) (Homo sapiens (Human), UniProt P42345); assay: mTOR enzymatic test by TR-FRET (phosphorylation of GFP-4EBP1); format: biochemical
In short: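 After a 30 min room-temperature kinase reaction, EDTA (10 mM final) and Tb-labelled phospho-Thr46 antibody (2 nM final) were added and incubated 60 min. Energy transfer from Tb to phosphorylated GFP-4EBP1 was read at 340 nm excitation, emissions 490/520 nm. Values derive from the 520/490 fluorescence ratio.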

U87MG tumour cells = assay: Test of in vitro proliferation of U87MG tumour cells; format: cell-based; settings: Homo sapiens, U-87 MG, 72 h, U87MG cells, 72 hours; read-out: U87 Cell Proliferation IC50
Description: Model 4: Test of in vitro Proliferation of U87MG Tumour Cells.
The cell growth is determined with the reagent CellTiter 96 AQueous One Solution Cell Proliferation Assay from Promega (Cat. No. G3581).

PI3Kα (p110α/p85α) = PI3Kα (p110α/p85α) (Homo sapiens (Human), UniProt P42336); assay: PI3Kα enzymatic test by measuring the consumption of ATP; format: biochemical
In short: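 ATP consumption read out by KinaseGlo luminescence after a 90 min reaction of 1.7 μg/ml PI3Kα (p110α/p85α) with 2 μM ATP and 50 μM PIP2, buffered at pH 7.5 (Tris, 10 mM MgCl2, 1 mM EGTA, 0.03% Chaps, 1 mM DTT). Threefold dilution series over ≥10 000-fold range yield IC50.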

mTOR (human recombinant aa mTOR 1360-2549), sequence (P42345 1360-2549): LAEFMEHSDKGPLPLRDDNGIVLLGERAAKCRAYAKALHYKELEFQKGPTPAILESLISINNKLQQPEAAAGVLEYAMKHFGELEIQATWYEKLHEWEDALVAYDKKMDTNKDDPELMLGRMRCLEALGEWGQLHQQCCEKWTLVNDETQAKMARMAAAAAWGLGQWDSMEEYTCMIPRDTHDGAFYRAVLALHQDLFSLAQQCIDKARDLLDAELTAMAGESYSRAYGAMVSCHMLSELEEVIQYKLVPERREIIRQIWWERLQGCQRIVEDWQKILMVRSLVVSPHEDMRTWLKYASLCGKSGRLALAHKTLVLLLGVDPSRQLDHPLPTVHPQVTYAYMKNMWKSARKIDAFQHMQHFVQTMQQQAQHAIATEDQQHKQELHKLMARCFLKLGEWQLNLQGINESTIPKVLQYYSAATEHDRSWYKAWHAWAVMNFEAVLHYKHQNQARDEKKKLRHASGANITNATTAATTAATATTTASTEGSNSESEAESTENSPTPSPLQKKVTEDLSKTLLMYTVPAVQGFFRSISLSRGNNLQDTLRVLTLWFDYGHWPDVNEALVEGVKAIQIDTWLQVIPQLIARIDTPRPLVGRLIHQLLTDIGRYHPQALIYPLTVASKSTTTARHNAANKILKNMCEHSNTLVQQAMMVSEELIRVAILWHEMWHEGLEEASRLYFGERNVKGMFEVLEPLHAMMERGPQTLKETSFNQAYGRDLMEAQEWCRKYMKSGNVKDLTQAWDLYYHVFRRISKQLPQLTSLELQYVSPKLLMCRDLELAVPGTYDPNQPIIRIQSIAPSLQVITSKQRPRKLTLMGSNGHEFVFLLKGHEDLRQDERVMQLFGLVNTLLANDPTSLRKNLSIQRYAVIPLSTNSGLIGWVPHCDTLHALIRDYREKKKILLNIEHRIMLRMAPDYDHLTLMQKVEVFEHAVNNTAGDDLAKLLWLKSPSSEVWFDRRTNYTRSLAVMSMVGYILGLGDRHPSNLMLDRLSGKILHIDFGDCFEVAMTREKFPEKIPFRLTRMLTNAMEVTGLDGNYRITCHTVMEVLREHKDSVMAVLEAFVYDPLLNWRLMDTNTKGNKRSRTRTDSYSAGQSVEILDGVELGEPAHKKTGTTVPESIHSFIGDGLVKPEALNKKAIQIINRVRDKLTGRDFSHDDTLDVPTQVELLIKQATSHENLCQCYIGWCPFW
PI3Kα (p110α/p85α), sequence (P42336 whole entry): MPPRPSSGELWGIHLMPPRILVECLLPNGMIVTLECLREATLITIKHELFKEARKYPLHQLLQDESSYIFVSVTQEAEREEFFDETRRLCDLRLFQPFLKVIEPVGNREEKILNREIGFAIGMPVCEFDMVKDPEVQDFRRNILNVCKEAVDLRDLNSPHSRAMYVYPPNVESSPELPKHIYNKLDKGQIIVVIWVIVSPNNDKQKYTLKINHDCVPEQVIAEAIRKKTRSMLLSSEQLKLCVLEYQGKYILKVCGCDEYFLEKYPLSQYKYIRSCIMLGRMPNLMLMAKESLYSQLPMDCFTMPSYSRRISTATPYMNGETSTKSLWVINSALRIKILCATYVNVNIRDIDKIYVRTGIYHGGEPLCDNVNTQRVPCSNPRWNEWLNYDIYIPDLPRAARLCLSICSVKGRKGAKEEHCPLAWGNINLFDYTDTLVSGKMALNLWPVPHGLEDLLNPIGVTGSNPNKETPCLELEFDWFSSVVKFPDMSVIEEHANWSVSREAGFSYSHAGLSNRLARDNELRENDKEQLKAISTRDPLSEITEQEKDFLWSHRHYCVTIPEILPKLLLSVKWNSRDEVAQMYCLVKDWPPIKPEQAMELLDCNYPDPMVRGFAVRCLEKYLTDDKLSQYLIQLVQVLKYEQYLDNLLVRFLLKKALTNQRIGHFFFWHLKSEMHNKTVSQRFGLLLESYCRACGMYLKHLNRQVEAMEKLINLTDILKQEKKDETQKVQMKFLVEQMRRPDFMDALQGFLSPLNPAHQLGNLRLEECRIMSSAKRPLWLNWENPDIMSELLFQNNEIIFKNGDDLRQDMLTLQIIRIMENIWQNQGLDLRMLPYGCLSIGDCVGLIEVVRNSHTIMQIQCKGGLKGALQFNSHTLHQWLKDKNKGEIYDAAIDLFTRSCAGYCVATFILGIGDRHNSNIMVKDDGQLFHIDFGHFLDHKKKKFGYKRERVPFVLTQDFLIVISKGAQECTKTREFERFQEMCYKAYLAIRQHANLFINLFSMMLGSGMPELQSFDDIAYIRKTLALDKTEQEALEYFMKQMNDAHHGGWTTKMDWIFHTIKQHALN
PI3Kα (p110α/p85α), sequence (P27986 whole entry partner): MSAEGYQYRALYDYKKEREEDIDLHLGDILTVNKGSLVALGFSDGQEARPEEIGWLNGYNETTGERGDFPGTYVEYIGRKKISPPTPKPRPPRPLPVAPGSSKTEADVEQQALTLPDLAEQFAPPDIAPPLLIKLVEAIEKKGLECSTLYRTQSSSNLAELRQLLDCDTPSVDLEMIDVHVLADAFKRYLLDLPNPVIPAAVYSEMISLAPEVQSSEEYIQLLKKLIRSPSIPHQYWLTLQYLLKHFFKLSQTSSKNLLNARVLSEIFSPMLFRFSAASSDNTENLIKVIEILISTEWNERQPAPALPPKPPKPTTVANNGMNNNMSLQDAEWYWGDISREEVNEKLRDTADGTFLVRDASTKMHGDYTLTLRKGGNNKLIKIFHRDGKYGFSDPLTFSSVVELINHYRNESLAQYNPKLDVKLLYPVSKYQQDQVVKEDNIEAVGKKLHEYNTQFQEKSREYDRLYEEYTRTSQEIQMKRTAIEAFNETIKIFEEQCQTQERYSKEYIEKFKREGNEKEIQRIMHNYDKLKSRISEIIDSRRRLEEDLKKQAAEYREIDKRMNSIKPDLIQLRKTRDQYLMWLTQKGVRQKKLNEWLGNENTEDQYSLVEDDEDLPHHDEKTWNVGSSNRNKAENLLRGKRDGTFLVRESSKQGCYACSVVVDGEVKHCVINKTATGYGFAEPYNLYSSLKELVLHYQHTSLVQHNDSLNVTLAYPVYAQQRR

Row | SMILES | IC50 (Akt-pS473 in U87MG cells) [nM] | IC50 [1] [nM] | IC50 (U87MG tumour cells) [nM] | PI3Ka IC50 (PI3Kα (p110α/p85α)) [nM]
1 | Cn1ccc(NC(=O)Nc2ccc(-c3nc(N4CC5CCC(C4)O5)nc4c3C(=O)N(C3CCOCC3)CC(C)(C)O4)cc2)n1 [Example 16, 1-{4-[8,8-dimethyl-2-(8-oxa-3-azabicyclo[3.2.1]oct-3-yl)-5-oxo-6-(tetrahydropyran-4-yl)-5,6,7,8-tetrahydro-9-oxa-1,3,6-triazabenzocyclohepten-4-yl]phenyl}-3-(1-methyl-1H-pyrazol-3-yl)urea] | 269 | 19 | 527 | >10000
2 | CCN1CC(C)(C)Oc2nc(N3CC4CCC(C3)O4)nc(-c3ccc(NC(=O)Nc4cccc(OC(F)F)c4)cc3)c2C1=O [Example 18, 1-(3-difluoromethoxyphenyl)-3-{4-[6-ethyl-8,8-dimethyl-2-(8-oxa-3-azabicyclo[3.2.1]oct-3-yl)-5-oxo-5,6,7,8-tetrahydro-9-oxa-1,3,6-triazabenzocyclohepten-4-yl]phenyl}urea] | 29 | 25 | 63 | 7570
3 | CCN1CC(C)(C)Oc2nc(N3CC4CCC(C3)O4)nc(-c3ccc(NC(=O)Nc4ccc(F)cc4F)cc3)c2C1=O [Example 19, 1-(2,4-difluorophenyl)-3-{4-[6-ethyl-8,8-dimethyl-2-(8-oxa-3-azabicyclo[3.2.1]oct-3-yl)-5-oxo-5,6,7,8-tetrahydro-9-oxa-1,3,6-triazabenzocyclohepten-4-yl]phenyl}urea] | 28 | 32 | 122 | 6219
4 | CCN1CC(C)(C)Oc2nc(N3CC4CCC(C3)O4)nc(-c3ccc(NC(=O)OC[C@H](C)O)c(F)c3)c2C1=O [Example 20, {4-[6-ethyl-8,8-dimethyl-2-(8-oxa-3-azabicyclo[3.2.1]oct-3-yl)-5-oxo-5,6,7,8-tetrahydro-9-oxa-1,3,6-triazabenzocyclohepten-4-yl]-2-fluorophenyl}carbamic acid (S)-2-hydroxypropyl ester] | > 1000 | 286 | 7590 | >10000
5 | COc1ccnc(NC(=O)Nc2ccc(-c3nc(N4CC5CCC(C4)O5)nc4c3C(=O)N(C)CC(C)(C)O4)cc2)c1 [Example 21, 1-(4-methoxypyridin-2-yl)-3-{4-[6,8,8-trimethyl-2-(8-oxa-3-azabicyclo[3.2.1]oct-3-yl)-5-oxo-5,6,7,8-tetrahydro-9-oxa-1,3,6-triazabenzocyclohepten-4-yl]phenyl}urea] | 51 | 15 | 549 | >10000
6 | CCN1CC(C)(C)Oc2nc(N3CC4CCC(C3)O4)nc(-c3ccc(NC(=O)Nc4ccc(OC5CCN(C)CC5)nc4)c(F)c3)c2C1=O [Example 22, 1-{4-[6-ethyl-8,8-dimethyl-2-(8-oxa-3-azabicyclo[3.2.1]oct-3-yl)-5-oxo-5,6,7,8-tetrahydro-9-oxa-1,3,6-triazabenzocyclohepten-4-yl]-2-fluorophenyl}-3-[6-(1-methylpiperidin-4-yloxy)pyridin-3-yl]urea] | 28 | 76 | 68 | 3070
7 | CCN1CC(C)(C)Oc2nc(N3CCOC[C@@H]3C)nc(-c3ccc(NC(=O)Nc4ccc(C(=O)N5CCC(N(C)C)CC5)cc4)cc3)c2C1=O [Example 23, 1-[4-(4-dimethylaminopiperidine-1-carbonyl)phenyl]-3-{4-[6-ethyl-8,8-dimethyl-2-((S)-3-methylmorpholin-4-yl)-5-oxo-5,6,7,8-tetrahydro-9-oxa-1,3,6-triazabenzocyclohepten-4-yl]phenyl}urea] | 62 | 51 | 30 | 79
8 | CCN1CC(C)(C)Oc2nc(N3CC4CCC(C3)O4)nc(-c3ccc(NC(=O)Nc4ccc(N5CCCC5)cn4)cc3)c2C1=O [Example 25, 1-{4-[6-ethyl-8,8-dimethyl-2-(8-oxa-3-azabicyclo[3.2.1]oct-3-yl)-5-oxo-5,6,7,8-tetrahydro-9-oxa-1,3,6-triazabenzocyclohepten-4-yl]phenyl}-3-(5-pyrrolidin-1-ylpyridin-2-yl)urea] | 124 | 130 | 196 | >10000
9 | CCN1CC(C)(C)Oc2nc(N3CCOC[C@@H]3C)nc(-c3ccc(NC(=O)Nc4ccon4)c(C)c3)c2C1=O [Example 26, 1-{4-[6-ethyl-8,8-dimethyl-2-((S)-3-methylmorpholin-4-yl)-5-oxo-5,6,7,8-tetrahydro-9-oxa-1,3,6-triazabenzocyclohepten-4-yl]-2-methylphenyl}-3-isoxazol-3-ylurea] | > 1000 | 112 | 3570 | 3860
10 | CCN1CC(C)(C)Oc2nc(N3CC4CCC(C3)O4)nc(-c3ccc(NC(=O)Nc4cncc(OC)n4)cc3)c2C1=O [Example 28, 1-{4-[6-ethyl-8,8-dimethyl-2-(8-oxa-3-azabicyclo[3.2.1]oct-3-yl)-5-oxo-5,6,7,8-tetrahydro-9-oxa-1,3,6-triazabenzocyclohepten-4-yl]phenyl}-3-(6-methoxypyrazin-2-yl)urea] | 42 | 59 | 508 | >10000
11 | CCN1CC(C)(C)Oc2nc(N3CC4CCC(C3)O4)nc(-c3ccc(NC(=O)Nc4ccc(N5CCOC[C@@H]5C)nc4)c(F)c3)c2C1=O [Example 29, 1-{4-[6-ethyl-8,8-dimethyl-2-(8-oxa-3-azabicyclo[3.2.1]oct-3-yl)-5-oxo-5,6,7,8-tetrahydro-9-oxa-1,3,6-triazabenzocyclohepten-4-yl]-2-fluorophenyl}-3-[6-((S)-3-methylmorpholin-4-yl)pyridin-3-yl]urea] | 32 | 38 | 165 | >10000
12 | CCN1CC(C)(C)Oc2nc(N3CC4CCC(C3)O4)nc(-c3ccc(NC(=O)Nc4ccc(N5CCOC[C@H]5C)nc4)c(F)c3)c2C1=O [Example 30, 1-{4-[6-ethyl-8,8-dimethyl-2-(8-oxa-3-azabicyclo[3.2.1]oct-3-yl)-5-oxo-5,6,7,8-tetrahydro-9-oxa-1,3,6-triazabenzocyclohepten-4-yl]-2-fluorophenyl}-3-[6-((R)-3-methylmorpholin-4-yl)pyridin-3-yl]urea] | 15 | 21 | 46 | >10000
13 | CCN1CC(C)(C)Oc2nc(N3CC4CCC(C3)O4)nc(-c3ccc(NC(=O)Nc4ccc(N5CCCCC5)nc4)c(F)c3)c2C1=O [Example 31, 1-{4-[6-Ethyl-8,8-dimethyl-2-(8-oxa-3-azabicyclo[3.2.1]oct-3-yl)-5-oxo-5,6,7,8-tetrahydro-9-oxa-1,3,6-triazabenzocyclohepten-4-yl]-2-fluorophenyl}-3-(3,4,5,6-tetrahydro-2H-[1,2′]bipyridinyl-5′-yl)urea] | 17 | 65 | 35 | >10000
14 | CCN1CC(C)(C)Oc2nc(N3CC4CCC(C3)O4)nc(-c3ccc(NC(=O)Nc4ccc(N5CCCC5)nc4)c(F)c3)c2C1=O [Example 32, 1-{4-[6-Ethyl-8,8-dimethyl-2-(8-oxa-3-azabicyclo[3.2.1]oct-3-yl)-5-oxo-5,6,7,8-tetrahydro-9-oxa-1,3,6-triazabenzocyclohepten-4-yl]-2-fluorophenyl}-3-(6-pyrrolidin-1-ylpyridin-3-yl)urea] | 21 | 84 | 115 | >10000
15 | CCN1CC(C)(C)Oc2nc(N3CC4CCC(C3)O4)nc(-c3ccc(NC(=O)Nc4ccccn4)cc3)c2C1=O [Example 33, 1-{4-[6-Ethyl-8,8-dimethyl-2-(8-oxa-3-azabicyclo[3.2.1]oct-3-yl)-5-oxo-5,6,7,8-tetrahydro-9-oxa-1,3,6-triazabenzocyclohepten-4-yl]phenyl}-3-pyridin-2-ylurea] | 42 | 24 | 226 | 9240
16 | CCN1CC(C)(C)Oc2nc(N3CC4CCC(C3)O4)nc(-c3ccc(NC(=O)Nc4ccc(C)cn4)cc3)c2C1=O [Example 34, 1-{4-[6-Ethyl-8,8-dimethyl-2-(8-oxa-3-azabicyclo[3.2.1]oct-3-yl)-5-oxo-5,6,7,8-tetrahydro-9-oxa-1,3,6-triazabenzocyclohepten-4-yl]phenyl}-3-(5-methylpyridin-2-yl)urea] | 70 | 43 | 320 | >10000
17 | CCN1CC(C)(C)Oc2nc(N3CC4CCC(C3)O4)nc(-c3ccc(NC(=O)Nc4cc(OC)ccn4)cc3)c2C1=O [Example 35, 1-{4-[6-Ethyl-8,8-dimethyl-2-(8-oxa-3-azabicyclo[3.2.1]oct-3-yl)-5-oxo-5,6,7,8-tetrahydro-9-oxa-1,3,6-triazabenzocyclohepten-4-yl]phenyl}-3-(4-methoxypyridin-2-yl)urea] | 75 | 37 | 336 | >10000
